These results are taken from patent US5458889A (priority 1986, dated 1995).

Format in all cases: cell-based
The subject of data set [1] is spermatozoa. Briefly: total spermicidal test of IPPF (death of all spermatozoa of 0.2 ml sperm in less than 5 seconds). To be noted: for MIC: 5 seconds. The procedure: The MIC of a chemical compound depends on this compound, but also on the conditions in which it is used, i.e. on the galenical form including the composition.
(§1) The test is carried out on at least 6 sperms from various donors, satisfying the following minimal conditions from IPPF:
age of the sample: two hours;
[…] : 50 million spermatozoa;
mobility: 50% of the spermatozoa should move forward fastly when examined at 35°-37° C. in a recent sample;
viscosity: ejaculum conveniently liquefied, not filaceous and homogeneous-looking with the naked eye;
collected in sterile glass tubes hermetically closed, preserved at 37° C.
The MIC of various known spermicidal compounds were determined with the IPPF test. The following results have been obtained by 1 milliliter of composition reacting with 0.2 milliliter of sperm and by determining the minimal concentration of the spermicidal compounds that induces the death of all the spermatozoa in 5 seconds, and this with 6 sperms from various donors.
The same total spermicidal test of IPPF was carried out with 1 milliliter of composition already containing 0.0001% (in weight) of fluoride anion F^- reacting upon 0.2 milliliter of sperm, by determining the minimal concentration of the spermicidal compounds that induces the death of all the spermatozoa in 5 seconds, and this with 6 sperms from various donors.
This test consists in realizing a test identical to tests N^.
Under the same conditions previously described (Tests N^. 1 to 3), various perfluorinated benzalkonium chlorides were used as basic spermicidal compounds. It was thus shown that perfluorinated benzalkonium chlorides have a spermicide activity similar to the one of the mere benzalkonium chloride. Besides, this activity remains identical to itself under the conditions of test N^.
Test N^. 2 was also realized on perfluorinated benzalkonium chloride mixed with another chemical compound capable of emitting ion F^-.

The subject of data set [2] is spermatozoa. Briefly: IPPF spermicidal test on galenical preparations after in vitro simulation of in vivo conditions. Conditions: Test 6, form originally containing 0.45% F^-. The procedure:
as §1
This test in vitro was conducted on galenical preparations including benzalkonium chloride as basic active ingredient, by determining the MIC of this benzalkonium chloride after simulation in vitro of the actual conditions in vivo (extraction, solubilization . . . ).
The percentages correspond to the proportions (in weight) of benzalkonium chloride in the solution used in vitro for the spermicidal test according to IPPF and obtained after simulation, the proportions being measured by titrating using a sample taken off from the solution.
The same conditions as during the comparative test N^. 5 were used, but from galenical forms each originally containing 0.45% (in weight) of fluoride anion F^-.

The test system of data set [3] is cells. The data set can be described thus: Study of threshold of cytotoxicity (LDO).
Another data set deals with poliomyelitis virus. Conditions: LiF, where present, 1 mg/l.
Data set [4] concerns cells. The data set can be described thus: Cell toxicity (Test 16). Conditions: cytomegalo virus section. From the text:
The following results were obtained:

Data set [5] relates to spermatozoa. The data set can be described thus: IPPF spermicidal test on galenical preparations after in vitro simulation of in vivo conditions. To be noted: Test 5, without activating ingredient.
[6] abbreviates: Test 1, without F^-, 6 sperms from various donors.
[7] abbreviates: Test 2, composition already containing 0.0001% (in weight) fluoride anion F^-, 6 sperms.
Where [8] appears, read: final concentration 20 mg/l, contact time 180 min.
[9] abbreviates: final concentration 50 mg/l, contact time 180 min.
Where [10] appears, read: final concentration 100 mg/l, contact time 30 min.
Where [11] appears, read: final concentration 100 mg/l, contact time 60 min.
Where [12] appears, read: final concentration 100 mg/l, contact time 120 min.
The mark [13] stands for this setting: final concentration 100 mg/l, contact time 180 min.

Where two headings read alike, the source gives them in different places.

In the data set with spermatozoa [1] (IPPF test, at a titer of 5 ppm (5 milligrams per liter), 0.0833333 min), `F` [fluoride anion F^-] registered a spermicide activity of 100%. Also, the “spermicidal effect in presence of sodium borate” value with spermatozoa [1] (Test 3, sodium borate to complex ion F^-) was “totally disappeared”. Moreover, the “total spermicide activity according to the IPPF test” value with spermatozoa [1] (solution containing 0.0001% fluoride anion F^- alone) was “do not have a total spermicide activity”.
On to Benzalkonium chloride, for which the MIC in the data set with spermatozoa [1] (setting [6]) was determined as 0.006 % in weight; in the data set on spermatozoa [1] (setting [7]) it was 0.002 % in weight. Besides, the “total spermicide activity according to the IPPF test” value in the data set on spermatozoa [1] (solution containing 0.003% benzalkonium chloride alone) is listed as “do not have a total spermicide activity”. The “MIC of benzalkonium chloride” value in the data set with spermatozoa [2] (galenical form: cream) was 0.0030 % in weight; with spermatozoa [2] (galenical form: gel) it was 0.0033 % in weight; in the data set with spermatozoa [2] (galenical form: ovule), 0.0023 % in weight; in the data set with spermatozoa [2] (galenical form: soluble waffle) it was 0.0017 % in weight; with spermatozoa [2] (galenical form: tablet), 0.0025 % in weight; in the data set with spermatozoa [2] (galenical form: tampon) it was 0.0025 % in weight. Besides, the “MIC of benzalkonium chloride” value is reported as 0.0083 % in weight in the data set with spermatozoa [5] (galenical form: cream); 0.0080 % in weight with spermatozoa [5] (galenical form: gel); 0.0063 % in weight in the data set on spermatozoa [5] (galenical form: ovule); 0.0080 % in weight in the data set on spermatozoa [5] (galenical form: soluble waffle); 0.0095 % in weight with spermatozoa [5] (galenical form: tablet); 0.0075 % in weight in the data set on spermatozoa [5] (galenical form: tampon). Moreover, the “threshold of cytotoxicity (LDO)” value with cells [3] (after filtration) amounted to 0.01%; in the data set with cells [3] (before filtration) it was 0.05%. Moreover, the Viral titre entry with poliomyelitis virus (final concentration 10 mg/l, contact time 180 min) is “≈ 0 PFU/ml”; in the data set on poliomyelitis virus (setting [8]) it was 0 PFU/ml; in the data set on poliomyelitis virus (setting [9]), 0 PFU/ml; in the data set with poliomyelitis virus (setting [10]), 0 PFU/ml; in the data set with poliomyelitis virus (setting [11]), 0 PFU/ml; with poliomyelitis virus (setting [12]), 0 PFU/ml. In the data set with poliomyelitis virus (setting [13]), this compound yielded a Viral titre of 0 PFU/ml. For the same compound, the “Cell Toxicity” value in the data set on cells [4] came out at 0.05%.
Benzalkonium fluoride: the “threshold of cytotoxicity (LDO)” value is recorded as 0.005% in the data set with cells [3] (after filtration) and 0.01% in the data set with cells [3] (before filtration). The Viral titre with poliomyelitis virus (setting [8]) was 0 PFU/ml; in the data set with poliomyelitis virus (final concentration 50 mg/l, contact time 120 min), 0 PFU/ml; in the data set with poliomyelitis virus (setting [9]), 0 PFU/ml; in the data set on poliomyelitis virus (setting [10]) it was 0 PFU/ml; with poliomyelitis virus (setting [11]), 0 PFU/ml; in the data set on poliomyelitis virus (setting [12]) it was 0 PFU/ml. The Viral titre in the data set on poliomyelitis virus (setting [13]) stood at 0 PFU/ml. The “Cell Toxicity” value in the data set on cells [4] came to 0.05%.
Take nonoxynol 9: the MIC with spermatozoa [1] (setting [6]) is on record as 0.006 % in weight; against spermatozoa [1] (setting [7]), 0.003 % in weight.
For p-menthanylphenylpolyoxyethylene ether, in that order: 0.006 % in weight and 0.003 % in weight.
